The results in this text go back to PubChem BioAssay (NCI).

Values joined by “and” are separate entries in the source; they are usually repeats but may differ in a detail not shown here. Equal values may be shown once.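 Growth conditions: 96-well plates. Treatment: test compound, 48 hours, 5 concentrations. Analysis: linear interpolation between bracketing concentrations; unreached endpoints set to highest concentration. The concentration for 50% growth inhibition is given as GI50. The concentration for full growth arrest is given as TGI.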 Bounds are passed on as bounds.

Some test systems named below: LOX IMVI melanoma; MCF7 breast; SK-OV-3 ovarian; M14 melanoma; A549 NSCLC; SN12C renal; UACC-257 melanoma; OVCAR-4 ovarian; HT29 colon; PC-3 prostate.
Assay in all cases: NCI-60 cell line screen, 48 h

As to `Cc1nc2sc(C(=O)Nc3cccc(Cl)c3)c(N)c2cc1C(O)c1ccccc1` (stereo not given), the GI50 in the test on LOX IMVI melanoma is 0.687 µM; in the test with MCF7 breast, 0.373 µM; in the test on SK-OV-3 ovarian, 1.22 µM; in the test on M14 melanoma it was 0.709 µM; with A549 NSCLC, 1.59 µM; in the test on SN12C renal, 0.976 µM. Also, the GI50 was 1.39 µM with UACC-257 melanoma, 4.64 µM in the test with OVCAR-4 ovarian, 0.387 µM in the test on HT29 colon and 2.78 µM in the test with PC-3 prostate. The TGI was 22.5 µM with LOX IMVI melanoma; 16.9 µM in the test with MCF7 breast; 16.1 µM in the test with SK-OV-3 ovarian; above 100 µM in the test on M14 melanoma; 38.8 µM in the test on A549 NSCLC; 13.6 µM with SN12C renal. Also, the TGI in the test with UACC-257 melanoma is 22.2 µM; in the test with OVCAR-4 ovarian it was 31.2 µM; in the test on HT29 colon it was above 100 µM; with PC-3 prostate, 25.1 µM.

For the compound `Fc1cccc(C2ON=C(c3ccccc3)N2C23CC4CC(CC(C4)C2)C3)c1` (stereo not given), the TGI in the test on LOX IMVI melanoma, in the test on MCF7 breast, in the test with SK-OV-3 ovarian, in the test on M14 melanoma, in the test on A549 NSCLC and in the test on SN12C renal was above 10 µM in each case. The TGI in the test with UACC-257 melanoma, in the test with OVCAR-4 ovarian, with HT29 colon and in the test on PC-3 prostate was above 10 µM each time.

`Nc1nc2c(ncn2C2OC(CO)C(O)C2O)c(=O)[nH]1` (stereo not given): the GI50 with LOX IMVI melanoma is above 100 µM; in the test with MCF7 breast it was above 100 µM; in the test with A549 NSCLC it was > 100 µM and 15.8 µM; in the test with SN12C renal it was above 100 µM; in the test with UACC-257 melanoma it was > 100 µM and 20.8 µM; in the test with OVCAR-4 ovarian, above 100 µM. In addition, the GI50 in the test on HT29 colon and with PC-3 prostate was above 100 µM in each case. For the same compound, the TGI in the test on LOX IMVI melanoma was > 100 µM and 145 µM; in the test on MCF7 breast, > 100 µM and 223 µM; in the test with SK-OV-3 ovarian, > 100 µM and 263 µM; in the test with A549 NSCLC it was > 100 µM and 170 µM; in the test on SN12C renal, > 100 µM and 162 µM; in the test with UACC-257 melanoma it was > 100 µM and 282 µM. For the same compound, the TGI in the test on OVCAR-4 ovarian was > 100 µM and 215 µM; with HT29 colon it was > 100 µM and 196 µM; in the test on PC-3 prostate it was above 100 µM.

With `COc1cc(/C=C/C(=O)/C=C/c2ccc(-n3ccnc3)cc2)ccc1O`, the GI50 in the test with LOX IMVI melanoma was 1.74 µM; with MCF7 breast it was 0.827 µM; with SK-OV-3 ovarian, 6.07 µM; with M14 melanoma it was 2.24 µM; in the test on A549 NSCLC, 3.19 µM; with SN12C renal, 2.41 µM. For the same compound, the GI50 in the test with UACC-257 melanoma is 3.21 µM; in the test with OVCAR-4 ovarian it was 8.38 µM; in the test on HT29 colon it was 1.97 µM; in the test with PC-3 prostate, 2.19 µM. Also, the TGI with LOX IMVI melanoma came out at 3.19 µM; in the test with MCF7 breast, 6.21 µM; in the test with SK-OV-3 ovarian, 36.1 µM; in the test with M14 melanoma, 5.98 µM; in the test with A549 NSCLC, 15.6 µM; with SN12C renal it was 7.53 µM. Moreover, the TGI amounted to 11.5 µM in the test on UACC-257 melanoma, 35.5 µM in the test with OVCAR-4 ovarian, 3.88 µM in the test with HT29 colon and 5.4 µM in the test on PC-3 prostate.

`CC(C)(C)OC(=O)CC(S(=O)(=O)c1ccccc1)S(=O)(=O)c1ccccc1`: the GI50 is 13.8 µM in the test on LOX IMVI melanoma; 13.5 µM in the test on MCF7 breast; 10.3 µM in the test on M14 melanoma; 18.3 µM in the test with A549 NSCLC; 15.4 µM with SN12C renal; 3.74 µM in the test with UACC-257 melanoma. For the same compound, the GI50 in the test on OVCAR-4 ovarian was 1.96 µM; in the test on PC-3 prostate it was 15.1 µM. The TGI turned out to be 33.2 µM in the test on LOX IMVI melanoma; 33 µM in the test with MCF7 breast; 22.7 µM in the test on M14 melanoma; 38.9 µM in the test on A549 NSCLC; 29.6 µM in the test with SN12C renal; 15.7 µM in the test on UACC-257 melanoma. Also, the TGI with OVCAR-4 ovarian stood at 4.58 µM; in the test on PC-3 prostate, 29.7 µM.

In the case of `O=C([CH-]C(=O)c1ccccc1)c1ccccc1.[CH2-]C.[CH2-]C.[Tl+3]`, the GI50 with LOX IMVI melanoma is 10.4 µM; in the test with MCF7 breast, 7.73 µM; in the test with SK-OV-3 ovarian, 32.5 µM; in the test with M14 melanoma, 18.5 µM; in the test with A549 NSCLC, 20.7 µM; with SN12C renal, 14.4 µM. Besides, the GI50 is 45.6 µM with UACC-257 melanoma, 16.8 µM in the test with OVCAR-4 ovarian, 26 µM in the test on HT29 colon and 32 µM with PC-3 prostate. The TGI in the test on LOX IMVI melanoma is 54.7 µM; in the test with MCF7 breast, above 100 µM; with SK-OV-3 ovarian, above 100 µM; with M14 melanoma it was 68.5 µM; in the test on A549 NSCLC, 66.3 µM; in the test on SN12C renal, above 100 µM. Moreover, the TGI in the test with UACC-257 melanoma, in the test on OVCAR-4 ovarian, with HT29 colon and in the test on PC-3 prostate was above 100 µM in each case.

For the compound `COc1ccc(N=C2C(=O)Nc3ccc(Br)cc32)cc1`, the TGI with LOX IMVI melanoma is 27.4 µM; with MCF7 breast it was 35.2 µM; in the test on SK-OV-3 ovarian it was 75.3 µM; in the test on M14 melanoma, 37.2 µM; with A549 NSCLC it was above 100 µM; with SN12C renal, 40.1 µM. In addition, the TGI is 48.1 µM in the test on UACC-257 melanoma, 58.1 µM in the test on HT29 colon and above 100 µM with PC-3 prostate.

`O=C(/C=C/c1ccccn1)c1ccccc1`: the GI50 in the test with LOX IMVI melanoma is 1.63 µM; in the test with MCF7 breast, 2.07 µM; in the test on SK-OV-3 ovarian, 16.8 µM; in the test on A549 NSCLC, 14.4 µM; in the test with SN12C renal, 4.33 µM; in the test on UACC-257 melanoma, 2.68 µM. The GI50 in the test on OVCAR-4 ovarian was 5.06 µM; in the test with HT29 colon, 1.99 µM; in the test with PC-3 prostate, 4.22 µM. For the same compound, the TGI with LOX IMVI melanoma amounted to 3.08 µM; in the test on MCF7 breast, 8.46 µM; in the test on SK-OV-3 ovarian, 30.5 µM; in the test with A549 NSCLC, 29.4 µM; in the test on SN12C renal, 17.1 µM; in the test with UACC-257 melanoma, 9.25 µM. For the same compound, the TGI was found to be 18.3 µM in the test on OVCAR-4 ovarian, 4.3 µM in the test with HT29 colon and 17 µM with PC-3 prostate.
